In ChEMBL document CHEMBL1201862, “PubChem BioAssay data set” (2004):
Values belong to the compound of their own block, whether it stands above or below them. Activity calls are given as the source filed them.

How the values were obtained:
[1] = target: T1, Sentrin-specific protease 7 (Homo sapiens, UniProt Q9BQF6); format: functional;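 further: Luminescence-based dose-response confirmation of ultra-high-throughput screening hits, measuring inhibition of SENP7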
T1 sequence (Q9BQF6 whole entry): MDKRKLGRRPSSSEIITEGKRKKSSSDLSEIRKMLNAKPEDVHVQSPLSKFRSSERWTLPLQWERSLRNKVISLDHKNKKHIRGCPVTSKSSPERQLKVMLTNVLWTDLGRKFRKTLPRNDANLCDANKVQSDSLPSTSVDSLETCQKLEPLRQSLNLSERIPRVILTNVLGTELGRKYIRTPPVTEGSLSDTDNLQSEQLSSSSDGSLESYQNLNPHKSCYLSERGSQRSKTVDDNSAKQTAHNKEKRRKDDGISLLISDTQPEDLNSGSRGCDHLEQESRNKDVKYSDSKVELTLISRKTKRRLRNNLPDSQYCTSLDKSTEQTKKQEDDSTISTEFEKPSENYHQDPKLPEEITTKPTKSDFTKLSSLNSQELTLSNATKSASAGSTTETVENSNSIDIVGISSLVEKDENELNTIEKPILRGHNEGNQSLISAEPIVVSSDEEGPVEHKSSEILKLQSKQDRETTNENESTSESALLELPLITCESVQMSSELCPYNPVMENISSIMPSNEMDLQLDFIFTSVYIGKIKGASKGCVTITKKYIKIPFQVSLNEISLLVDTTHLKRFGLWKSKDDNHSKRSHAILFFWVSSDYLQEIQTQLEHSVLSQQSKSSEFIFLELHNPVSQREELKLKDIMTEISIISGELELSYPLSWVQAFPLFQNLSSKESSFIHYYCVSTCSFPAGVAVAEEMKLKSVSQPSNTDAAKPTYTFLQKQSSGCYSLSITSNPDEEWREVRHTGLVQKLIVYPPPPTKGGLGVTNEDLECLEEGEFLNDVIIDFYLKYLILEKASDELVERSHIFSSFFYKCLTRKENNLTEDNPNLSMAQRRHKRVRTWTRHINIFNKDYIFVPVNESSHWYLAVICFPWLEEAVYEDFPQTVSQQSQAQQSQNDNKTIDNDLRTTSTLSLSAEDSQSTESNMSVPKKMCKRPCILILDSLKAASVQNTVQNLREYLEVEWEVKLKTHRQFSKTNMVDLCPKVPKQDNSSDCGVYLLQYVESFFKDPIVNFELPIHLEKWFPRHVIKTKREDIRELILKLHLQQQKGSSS

[2] = target: T2, Histone-lysine N-methyltransferase NSD2 (Homo sapiens, UniProt O96028); format: biochemical
T2 sequence (O96028 whole entry): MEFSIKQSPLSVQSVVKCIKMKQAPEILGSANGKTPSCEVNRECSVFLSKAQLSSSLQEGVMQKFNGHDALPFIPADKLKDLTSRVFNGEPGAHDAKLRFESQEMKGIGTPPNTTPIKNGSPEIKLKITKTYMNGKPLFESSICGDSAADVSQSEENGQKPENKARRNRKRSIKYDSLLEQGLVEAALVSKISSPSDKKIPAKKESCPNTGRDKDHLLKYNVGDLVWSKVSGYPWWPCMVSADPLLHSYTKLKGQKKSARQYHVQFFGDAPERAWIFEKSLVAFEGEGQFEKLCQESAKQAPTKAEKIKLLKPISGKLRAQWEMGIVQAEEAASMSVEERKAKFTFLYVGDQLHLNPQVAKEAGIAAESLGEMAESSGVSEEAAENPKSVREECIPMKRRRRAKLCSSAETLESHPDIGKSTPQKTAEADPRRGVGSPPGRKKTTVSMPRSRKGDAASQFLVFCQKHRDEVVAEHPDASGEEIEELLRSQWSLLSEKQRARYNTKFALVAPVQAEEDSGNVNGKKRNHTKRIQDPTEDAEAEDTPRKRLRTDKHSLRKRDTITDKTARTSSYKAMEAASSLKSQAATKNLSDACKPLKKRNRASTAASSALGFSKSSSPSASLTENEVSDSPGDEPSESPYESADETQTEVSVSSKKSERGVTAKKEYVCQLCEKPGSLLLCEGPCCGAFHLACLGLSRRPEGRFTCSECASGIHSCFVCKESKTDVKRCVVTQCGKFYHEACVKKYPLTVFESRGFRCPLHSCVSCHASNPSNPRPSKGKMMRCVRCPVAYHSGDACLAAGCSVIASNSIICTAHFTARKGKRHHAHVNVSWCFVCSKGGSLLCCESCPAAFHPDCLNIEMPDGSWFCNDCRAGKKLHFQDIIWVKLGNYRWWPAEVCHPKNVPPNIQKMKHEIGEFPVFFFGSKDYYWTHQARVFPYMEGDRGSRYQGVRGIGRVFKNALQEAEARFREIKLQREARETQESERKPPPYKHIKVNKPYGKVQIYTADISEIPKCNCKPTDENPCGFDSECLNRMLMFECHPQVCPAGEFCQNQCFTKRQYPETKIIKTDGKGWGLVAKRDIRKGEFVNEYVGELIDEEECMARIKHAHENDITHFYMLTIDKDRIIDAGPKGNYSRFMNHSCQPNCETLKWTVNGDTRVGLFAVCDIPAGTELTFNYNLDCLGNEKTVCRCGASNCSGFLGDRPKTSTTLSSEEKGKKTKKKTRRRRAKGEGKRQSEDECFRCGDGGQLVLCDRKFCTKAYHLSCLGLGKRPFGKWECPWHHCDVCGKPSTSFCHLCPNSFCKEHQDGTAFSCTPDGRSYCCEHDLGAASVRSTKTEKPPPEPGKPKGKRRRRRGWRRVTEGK

[3] = target: Serine/threonine-protein kinase pim-1 (Homo sapiens, UniProt P11309); format: functional
[4] = target: Protein kinase C delta type (Homo sapiens, UniProt Q05655); format: functional
[5] = target: Receptor-type tyrosine-protein kinase FLT3 (Homo sapiens, UniProt P36888); format: functional;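 further: FLT3 was tested as one member of a kinome-wide kinase panel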
[6] = target: Rho-associated protein kinase 1 (Homo sapiens, UniProt Q13464); format: functional;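 further: measured within a broad kinome-wide panel profiling many kinases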
[7] = target: Small ubiquitin-related modifier 1 (Homo sapiens, UniProt P63165); assay: inhibitors of SUMO1 peptide binding, dose response, biochemical, fluorescence polarization, uHTS hits (AID 624382); format: functional; conditions: read-out: IC50_Mean
[8] = target: T3, Bcl-2-related protein A1 (Mus musculus, UniProt Q07440); format: functional;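 further: confirmatory dose–response counterscreen on Bfl-1, used to check hits from a UBC13 polyubiquitin inhibitor campaign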
T3 sequence (Q07440 whole entry): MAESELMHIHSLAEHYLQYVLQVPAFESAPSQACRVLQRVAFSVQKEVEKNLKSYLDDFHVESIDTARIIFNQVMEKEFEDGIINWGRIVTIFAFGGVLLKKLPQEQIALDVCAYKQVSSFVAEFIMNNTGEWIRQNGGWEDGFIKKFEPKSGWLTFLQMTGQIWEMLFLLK

Serine/threonine-protein kinase pim-1, sequence (P11309 whole entry): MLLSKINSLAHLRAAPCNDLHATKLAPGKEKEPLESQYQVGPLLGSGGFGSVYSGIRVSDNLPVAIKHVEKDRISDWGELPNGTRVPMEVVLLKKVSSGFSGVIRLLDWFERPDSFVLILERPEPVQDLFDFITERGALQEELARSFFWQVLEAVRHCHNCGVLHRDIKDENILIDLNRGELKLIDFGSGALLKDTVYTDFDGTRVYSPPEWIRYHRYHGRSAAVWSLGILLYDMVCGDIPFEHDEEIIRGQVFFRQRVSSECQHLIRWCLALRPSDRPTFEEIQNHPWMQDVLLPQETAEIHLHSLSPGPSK
Rho-associated protein kinase 1, sequence (Q13464 whole entry): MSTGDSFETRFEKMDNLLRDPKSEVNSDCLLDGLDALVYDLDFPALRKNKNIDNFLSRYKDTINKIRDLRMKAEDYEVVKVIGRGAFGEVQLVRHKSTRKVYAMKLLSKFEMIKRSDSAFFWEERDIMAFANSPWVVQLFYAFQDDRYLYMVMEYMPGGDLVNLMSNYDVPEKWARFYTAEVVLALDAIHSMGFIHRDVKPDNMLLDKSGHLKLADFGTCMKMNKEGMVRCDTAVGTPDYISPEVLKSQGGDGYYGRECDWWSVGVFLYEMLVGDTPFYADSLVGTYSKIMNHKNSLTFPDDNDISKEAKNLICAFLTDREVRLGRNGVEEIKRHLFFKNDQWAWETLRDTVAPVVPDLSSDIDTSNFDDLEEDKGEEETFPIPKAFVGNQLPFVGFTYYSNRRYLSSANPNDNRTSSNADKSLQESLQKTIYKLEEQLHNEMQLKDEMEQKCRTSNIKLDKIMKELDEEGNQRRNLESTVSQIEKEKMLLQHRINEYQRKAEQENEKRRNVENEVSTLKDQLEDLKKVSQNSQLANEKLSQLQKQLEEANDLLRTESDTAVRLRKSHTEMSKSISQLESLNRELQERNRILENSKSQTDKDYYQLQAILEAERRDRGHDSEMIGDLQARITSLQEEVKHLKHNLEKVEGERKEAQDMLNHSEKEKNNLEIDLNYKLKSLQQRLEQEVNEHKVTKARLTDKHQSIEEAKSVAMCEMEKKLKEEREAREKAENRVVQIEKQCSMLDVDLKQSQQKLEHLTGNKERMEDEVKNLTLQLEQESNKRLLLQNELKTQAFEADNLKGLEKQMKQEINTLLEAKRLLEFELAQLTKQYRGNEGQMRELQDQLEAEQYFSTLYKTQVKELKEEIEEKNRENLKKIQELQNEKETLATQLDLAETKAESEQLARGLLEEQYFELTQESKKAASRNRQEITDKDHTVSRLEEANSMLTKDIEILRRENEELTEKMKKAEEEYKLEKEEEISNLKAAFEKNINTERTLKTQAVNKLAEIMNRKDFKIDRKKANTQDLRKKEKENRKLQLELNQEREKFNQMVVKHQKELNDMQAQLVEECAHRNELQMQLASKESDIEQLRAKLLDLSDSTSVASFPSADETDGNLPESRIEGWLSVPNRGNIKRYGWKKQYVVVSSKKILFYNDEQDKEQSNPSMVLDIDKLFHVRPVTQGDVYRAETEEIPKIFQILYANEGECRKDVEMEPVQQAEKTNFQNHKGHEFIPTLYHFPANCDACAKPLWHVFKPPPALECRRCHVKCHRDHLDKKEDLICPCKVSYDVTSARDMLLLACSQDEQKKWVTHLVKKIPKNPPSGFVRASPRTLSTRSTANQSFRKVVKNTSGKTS
Small ubiquitin-related modifier 1, sequence (P63165 whole entry): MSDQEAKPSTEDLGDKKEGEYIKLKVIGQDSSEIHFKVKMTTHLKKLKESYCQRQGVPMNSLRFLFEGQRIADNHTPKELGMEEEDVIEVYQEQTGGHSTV
Protein kinase C delta type, sequence (Q05655 whole entry): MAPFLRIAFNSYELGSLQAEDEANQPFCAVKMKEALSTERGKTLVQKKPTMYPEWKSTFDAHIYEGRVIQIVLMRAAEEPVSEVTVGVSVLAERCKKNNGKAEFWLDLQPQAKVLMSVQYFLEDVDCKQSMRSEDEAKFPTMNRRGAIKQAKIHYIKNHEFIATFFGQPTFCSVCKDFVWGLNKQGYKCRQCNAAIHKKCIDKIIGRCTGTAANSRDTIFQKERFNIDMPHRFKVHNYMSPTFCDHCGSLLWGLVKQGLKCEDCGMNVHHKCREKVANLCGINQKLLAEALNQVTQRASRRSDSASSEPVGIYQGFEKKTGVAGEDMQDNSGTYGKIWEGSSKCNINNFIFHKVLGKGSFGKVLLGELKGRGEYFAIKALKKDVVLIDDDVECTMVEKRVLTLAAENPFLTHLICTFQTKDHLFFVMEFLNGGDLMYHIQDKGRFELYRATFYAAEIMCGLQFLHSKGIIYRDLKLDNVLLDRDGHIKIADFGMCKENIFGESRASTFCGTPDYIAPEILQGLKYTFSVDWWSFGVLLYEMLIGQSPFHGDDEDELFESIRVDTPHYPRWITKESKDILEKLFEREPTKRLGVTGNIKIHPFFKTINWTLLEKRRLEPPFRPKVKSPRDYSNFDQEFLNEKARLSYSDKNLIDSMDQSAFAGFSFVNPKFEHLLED
Receptor-type tyrosine-protein kinase FLT3, sequence (P36888 whole entry): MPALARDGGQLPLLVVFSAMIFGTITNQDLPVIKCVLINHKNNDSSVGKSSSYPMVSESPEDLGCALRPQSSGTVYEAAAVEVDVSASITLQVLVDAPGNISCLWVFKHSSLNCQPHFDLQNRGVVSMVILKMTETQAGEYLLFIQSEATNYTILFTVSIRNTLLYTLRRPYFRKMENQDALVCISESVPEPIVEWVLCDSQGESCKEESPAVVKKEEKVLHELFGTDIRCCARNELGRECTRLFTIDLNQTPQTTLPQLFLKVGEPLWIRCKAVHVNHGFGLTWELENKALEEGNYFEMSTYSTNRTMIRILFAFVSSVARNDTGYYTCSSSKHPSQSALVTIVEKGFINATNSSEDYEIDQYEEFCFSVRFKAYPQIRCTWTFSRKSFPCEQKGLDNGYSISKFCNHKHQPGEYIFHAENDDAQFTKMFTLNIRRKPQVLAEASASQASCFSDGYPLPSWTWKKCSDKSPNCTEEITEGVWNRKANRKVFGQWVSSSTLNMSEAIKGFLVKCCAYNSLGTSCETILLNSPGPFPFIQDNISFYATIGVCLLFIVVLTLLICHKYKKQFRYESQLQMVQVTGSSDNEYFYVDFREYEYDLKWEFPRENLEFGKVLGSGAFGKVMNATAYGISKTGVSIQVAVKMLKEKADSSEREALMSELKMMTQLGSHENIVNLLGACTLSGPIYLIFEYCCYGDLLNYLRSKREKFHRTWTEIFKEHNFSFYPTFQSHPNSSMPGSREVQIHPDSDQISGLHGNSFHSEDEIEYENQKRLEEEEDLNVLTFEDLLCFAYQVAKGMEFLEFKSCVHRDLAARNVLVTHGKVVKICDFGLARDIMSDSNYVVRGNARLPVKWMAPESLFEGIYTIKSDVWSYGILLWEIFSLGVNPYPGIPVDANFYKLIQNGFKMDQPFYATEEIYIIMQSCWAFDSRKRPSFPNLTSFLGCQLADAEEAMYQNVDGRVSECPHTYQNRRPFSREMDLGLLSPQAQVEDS

SMILES: CCC(C)NC(=O)c1c(N)n(CCCOC)c2nc3ccccc3nc12 (stereo not drawn)
IC50 [1]: 1.36 µM (active)
AC50 [2]: 4.25 µM (active)

Ki [3]: 0.158 µM (active)
Ki [4]: 0.316 µM (active)
Ki [5]: 2 µM (active)
Ki [6]: 0.501 µM (active)
SMILES: CC(=NNC(=N)N)c1cc(NC(=O)NCCCCCCNC(=O)Nc2cc(C(C)=NNC(=N)N)cc(C(C)=NNC(=N)N)c2)cc(C(C)=NNC(=N)N)c1

SMILES: Cc1cc(N)c2cc(NC(=O)/C=C/c3ccccc3Cl)ccc2n1
IC50 [7]: > 66.6 µM (inactive)
IC50 [8]: 18.2 µM (active)
